These results are taken from patent US20230270148A1, “BITTER BLOCKERS AND RELATED METHODS OF USE” (Conagen Inc., priority 2020, published 2023).

In one assay the test system is 0.25% caffeine solution. Nature of the assay: Sensory evaluation: bitterness reduction of a caffeine solution. It counts as in vivo. The settings on record: for Comments: taste and mouth feel comments, dosage per sample; for Estimated % bitterness reduction: one trained sensory evaluator, vs control, dosage (ppm) per sample (20 to 50-100 ppm). Here is the method: The bitter blocker candidates listed in Table 1 were prepared into a 1% sample solution with propylene glycol (i.e., 1 g of bitter blocker per 100 ml of propylene glycol) and heated to ensure complete solubilization. […] A trained sensory evaluator was asked to estimate the perceived bitterness reduction against the control, as well as to provide comments on how the addition of the individual sample solution modulated the taste and mouth feel profile of the resulting caffeine solution.

In assay [1] the test system is peach-flavored energy drink (caffeine, B vitamins). Description: Sensory evaluation: bitterness reduction of a peach-flavored energy drink. It counts as in vivo. The settings on record: for Comments: dosage per sample; for Estimated % bitterness reduction: caffeine about 710 mg/l, dosage (ppm) per sample (20 to 50-100 ppm). Here is the method:
The bitterness blocker candidates listed in Table 1 were prepared into a 1% sample solution with propylene glycol and heated to ensure complete solubilization. […] A trained sensory evaluator was asked to estimate the perceived bitterness reduction against the control, as well as to provide comments on how the addition of the individual sample solution modulated the taste and mouth feel profile of the resulting peach-flavored energy drink.

Assay [2] concerns melted dark chocolate pieces with 100% dark cacao. Description: Sensory evaluation: bitterness reduction of dark chocolate pieces. It counts as in vivo. The settings on record: dosage 50 or 100 ppm per sample. Here is the method:
(§1) The bitterness blocker candidates listed in Table 1 were prepared into a 1% sample solution with propylene glycol and heated to ensure complete solubilization. […] Individually, the respective sample solution was added to melted dark chocolate pieces with 100% dark cacao. A trained sensory evaluator was asked to estimate the perceived bitterness reduction against the control, as well as to provide comments on how the addition of the individual sample solution modulated the taste and mouth feel profile of the resulting melted dark chocolate pieces.

A further assay concerns dark roast coffee. Description: Sensory evaluation: bitterness reduction of dark roast coffee. The format is in vivo. The settings on record: dosage 50 or 100 ppm per sample; for Estimated % bitterness reduction: caffeine about 740 mg/l. Here is the method: The bitterness blocker candidates listed in Table 1 were prepared into a 1% sample solution with propylene glycol and heated to ensure complete solubilization. […] A trained sensory evaluator was asked to estimate the perceived bitterness reduction against the control, as well as to provide comments on how the addition of the individual sample solution modulated the taste and mouth feel profile of the resulting dark roast coffee.

Assay [3] deals with cough syrup DELSYM (dextromethorphan HBr). Nature of the assay: Sensory evaluation: bitterness reduction of cough syrup DELSYM. The format is in vivo. The settings on record: dosage 50 or 100 ppm per sample; for Estimated % bitterness reduction: 6000 mg/l of dextromethorphan. Here is the method: as §1, with “a cough syrup sold under the trade name DELSYM®. The bitter-tasting agent contained in the cough syrup were dextromethorphan HBr USP 30 mg (as measured for each 5 ml teaspoon, i.e., 6000 mg/l of dextromethorphan).” for “melted dark chocolate pieces with 100% dark cacao.”, “cough syrup.” for “melted dark chocolate pieces.”

Assay [4] concerns cough syrup ROBITUSSIN DM (dextromethorphan HBr and guaifenesin). Description: Sensory evaluation: bitterness reduction of cough syrup ROBITUSSIN DM. It counts as in vivo. The settings on record: dosage 50 or 100 ppm per sample; for Estimated % bitterness reduction: 21000 mg/l of bitter tastants. Here is the method: as §1, with “a cough syrup sold under the trade name ROBITUSSIN® DM. The bitter-tasting agents contained in the cough syrup were dextromethorphan HBr USP 20 mg and guaifenesin USP 400 mg (as measured for each 20 ml serving, or 21000 mg/l of bitter tastants in total).” for “melted dark chocolate pieces with 100% dark cacao.”, “cough syrup.” for “melted dark chocolate pieces.”

Assay [5] concerns full spectrum CBD hemp oil nanoemulsion. Nature of the assay: Sensory evaluation: bitterness reduction of full spectrum CBD hemp oil. It counts as in vivo. The settings on record: dosage 50 or 100 ppm per sample. Here is the method:
The bitterness blocker candidates listed in Table 1 were prepared into a 1% sample solution with propylene glycol and heated to ensure complete solubilization. […] A full spectrum CBD hemp oil was emulsified into a water-soluble nanoemulsion first, to which was added the respective sample solution. […] A trained sensory evaluator was asked to estimate the perceived bitterness reduction against the control, as well as to provide comments on how the addition of the individual sample solution modulated the taste and mouth feel profile of the resulting oil nanoemulsion.

A further assay has as its system CBD isolate nanoemulsion. Nature of the assay: Sensory evaluation: bitterness reduction of CBD isolate. It counts as in vivo. The settings on record: dosage 50 or 100 ppm per sample. Here is the method: The bitterness blocker candidates listed in Table 1 were prepared into a 1% sample solution with propylene glycol and heated to ensure complete solubilization. […] A CBD isolate was emulsified into a water-soluble nanoemulsion first, to which was added the respective sample solution. […] A trained sensory evaluator was asked to estimate the perceived bitterness reduction against the control, as well as to provide comments on how the addition of the individual sample solution modulated the taste and mouth feel profile of the resulting nanoemulsion.

For the next assay, the system named is THC nanoemulsion. Nature of the assay: Sensory evaluation: bitterness reduction of THC. It counts as in vivo. The settings on record: dosage 50 or 100 ppm per sample; for Comments: THC nanoemulsion; for Estimated % bitterness reduction: THC nanoemulsion (10 mg THC per serving). Here is the method: The bitterness blocker candidates listed in Table 1 were prepared into a 1% sample solution with propylene glycol and heated to ensure complete solubilization. […] THC was first emulsified into a water-soluble nanoemulsion (10 mg THC per serving), to which was added the respective sample solution. A trained sensory evaluator was asked to estimate the perceived bitterness reduction against the control, as well as to provide comments on how the addition of the individual sample solution modulated the taste and mouth feel profile of the resulting nanoemulsion.

The test system of the next assay is caffeine in water. Description: Two-alternative forced choice (2AFC) difference test. It counts as in vivo. Here is the method: The bitter blocker candidates BB09, BB11, and BB13 were subject to a two-alternative forced choice (2AFC) difference test wherein panelists were presented Control Caffeine solutions and Test solutions containing caffeine and one of three bitterness blocker candidates (BB09, BB 11, or BB13). Panelists were asked to evaluate the two samples and answer the question, “which one is more hitter?”
BB09 and BB11 were tested first. Three ounces of control (caffeine in water), BB09 in caffeine water, and BB11 in caffeine water were presented at room temperature in separate plastic souffle cups labeled with 3-digit codes. Ten sensory trained panelists evaluated each sample in three repetitions with a 10 minute break between repetitions. Panelists then completed the 2AFC. Data was collected on EveQuestion and analyzed on XLSTAT. Testing was conducted at Sensations Research according to FEMA guidelines.
BB13 was tested separately. Two ounces of control (caffeine in water), BB13 in caffeine water were presented at room temperature in separate plastic souffle cups labeled with 3-digit codes. Fifteen participants evaluated each sample in two repetitions with a 10 minute break between repetitions for a total of thirty evaluations as per the FEMA guidelines. Panelists then completed the 2AFC to identify the more bitter sample. Data was collected and analyzed on Compusense.

Assay [6] relates to bitter-responsive human taste bud tissue-derived cells (hTBEC). Description: ATP secretion detection assay (luminescence). It counts as cell-based. Here is the method: The bitter blocker candidates were further characterized using bitter-responsive human taste bud tissue-derived cells (hTBEC) platforms and bioassays. Bitter-responsive hTBECs were treated with hitter blocker candidates and various bitter agonists to assess the efficacy of each bitter blocker candidate in reducing the bitterness of each of the various bitter agonists.
One industry standard bitter agonist was used as a control (L-Praziquantel), and five bitter blocker controls were used (Senomyx BB68, STX-001, sodium gluconate, eridictyol, and homoeridictyol).
BB09, BB11, and BB13 were first tested at various concentrations in combination with 100 μM Dextromethorphan-HBr.
Next, bitter blocker concentration ranges were narrowed (100 μM-1,000 μM) and compared to a fixed concentration of stimulus. […] BB13 was evaluated further by real time ATP secretion detection in pooled hTBEC 66 cells treated with 300 μM Theobromine.
Each culture was treated with BB09, BB11, BB13, STX001, or Senomyx BB68, as well as either Dextromethorphan-HBr at 1000 μM (FIGS. 18A-18C), Theobromine at 1,000 μM (FIGS. 19A-19C), Rebaudioside A at 1 mM (FIGS. 20A-20C), or Caffeine at 3 mM (FIGS. 21A-21C).

On to `COc1ccc(-c2cc(=O)c3c(O)cc(O)cc3o2)cc1` [BB01, Acacetin], for which the Comments result in the assay with 0.25% caffeine solution is on record as “Some bitterness blocking on sides”.
Regarding `COc1cc([C@@H]2CC(=O)c3c(O)cc(O)cc3O2)ccc1O` [BB02, Homoeriodictyol], the Comments result in assay [1] is “Some blocking on sides and tip”; in [2], “Some blocking on sides and tip”; in the assay on dark roast coffee, “Some blocking on sides and tip”; in [3], “Some blocking on sides and tip”; in assay [4], “Some blocking on sides and tip”; in assay [5], “Some blocking on sides and tip”. In addition, the Comments entry is “Some blocking on sides and tip” in the assay with CBD isolate nanoemulsion; “Some blocking on sides and tip” in the assay on THC nanoemulsion.
For the molecule `O=C1c2c(O)cc(O)cc2O[C@H](c2ccc(O)c(O)c2)[C@H]1O` [BB04, Dihydroquercetin], the Comments result with 0.25% caffeine solution was “Some bitterness blocking on sides”.
On to `O=C1C[C@@H](c2ccc(O)c(O)c2)Oc2cc(O)cc(O)c21` [BB07, Eriodictyol], for which the “Estimated % bitterness reduction” value with 0.25% caffeine solution is given as 50%; in assay [1] it was 50%; in [2], 50%; in the assay with dark roast coffee it was 50%; in [3], 30%; in assay [4] it was 30%. The “Estimated % bitterness reduction” value (in assay [5]; in the assay on CBD isolate nanoemulsion; in the assay with THC nanoemulsion) was 30% in each case. The Comments result was “Some bitterness blocking on all parts” in the assay with 0.25% caffeine solution; “Some bitterness blocking on all” in assay [1]; “Some bitterness blocking on all” in assay [2]; “Some bitterness blocking on all” with dark roast coffee; “Some bitterness blocking on all” in [3]; “Some bitterness blocking on all” in assay [4]. Moreover, the Comments result (in [5]; with CBD isolate nanoemulsion; in the assay with THC nanoemulsion) was “Some bitterness blocking on all” each time.
Regarding `O=c1c(O)c(-c2ccc(O)cc2)oc2cc(O)cc(O)c12` [BB03, Kaempferol], the Comments entry in the assay on 0.25% caffeine solution is “Some bitterness blocking on sides”.
For `O=C1C[C@@H](c2ccc(O[C@@H]3O[C@H](CO)[C@@H](O)[C@H](O)[C@H]3O)c(O)c2)Oc2cc(O)cc(O)c21` [BB12, Eriodictyol 4′-O-glucoside], the “Estimated % bitterness reduction” value (in the assay on 0.25% caffeine solution; in assay [1]; in assay [2]; in the assay with dark roast coffee; in [3]; in assay [4]) was 30% in each case. In addition, the “Estimated % bitterness reduction” value (in assay [5]; in the assay with CBD isolate nanoemulsion; in the assay on THC nanoemulsion) was 30% in each case. In addition, in the assay with 0.25% caffeine solution, the Comments entry was “Some bitterness blocking on front”.
On to `COc1cc([C@@H]2CC(=O)c3c(O)cc(O[C@@H]4O[C@H](CO)[C@@H](O)[C@H](O)[C@H]4O)cc3O2)ccc1O` [BB09, Homoeriodictyol 7-O-glucoside], for which the Comments entry in the assay with 0.25% caffeine solution is on record as “Good upfront bitterness reduction”; in [1], “Good upfront bitterness”; in assay [2], “Good bitterness reduction but”; in the assay with dark roast coffee, “Nice upfront bitterness reduction”; in [3] it was “Covered up a good percentage of”; in assay [5], “Nice upfront bitterness reduction”. In addition, the Comments entry with CBD isolate nanoemulsion and in the assay with THC nanoemulsion was “Nice upfront bitterness reduction” each time. Further, in the assay with caffeine in water (2AFC, 90% confidence level, which sample is more bitter), the “Significant?” value is “Yes,”. Also, the “# Selected Variant (which is more bitter?)” value with caffeine in water (of 30 responses (10 panelists, 3 evaluations), control caffeine in water vs variant in caffeine water) turned out to be 10. Further, the “real time Rebaudioside A-induced ATP secretion” value in assay [6] (1 mM Rebaudioside A, blocker 1,000 μM, pooled hTBEC 56 cultures (FIG. 17)) is “attenuated”. For the same molecule, the “inhibition of the bitter agonists (ATP secretion)” value in assay [6] (hTBEC 66, hTBEC 56, hTBEC Donor H, Dextromethorphan-HBr at 1000 μM, Theobromine 1,000 μM, Rebaudioside A 1 mM or Caffeine 3 mM (FIGS. 18-21)) is “trends of inhibition in most cases”.
On to `O=C1c2c(O)cc(O)cc2O[C@H](c2ccc(O)cc2)[C@H]1O` [BB06, Dihydrokaempferol], for which, in the assay on 0.25% caffeine solution, the Comments entry is on record as “Some bitterness blocking on sides”.
